From patent publication US8044221B2, “Fluorine-containing boronic acid ester compound and method for producing the same” (Unimatec Co., Ltd., priority 2008, dated 2011)
Like-named read-outs stand apart in the source and are kept apart here.

Test: Solubility in fluorine-containing organic solvent 1,3-bis(trifluoromethyl)benzene, visually measured
Protocol: The solubility of the fluorine-containing boronic acid ester compound [A] in 1,3-bis(trifluoromethyl)benzene, which was a fluorine-containing organic solvent used in Reference Example 3, described later, was 3.0 g/10 ml·solvent. Here, the solubility was determined in such a manner that the compound was added and stirred in 10 ml of said fluorine-containing organic solvent at 25° C., and then the maximum amount of addition sufficient to make the solution homogeneous was visually measured.
From this fact, a high solubility in a fluorine-containing organic solvent was confirmed.

[1] = 10 ml solvent, stirred at 25° C., maximum amount of addition giving a homogeneous solution, visually measured

Compound | solubility in 1,3-bis(trifluoromethyl)benzene [1] | other results
OB(O)c1ccc(B(O)O)cc1 [1,4-benzene diboronic acid] | insoluble | 
CC1(C)OB(c2ccc(B3OC(C)(C)C(C)(C)O3)cc2)OC1(C)C [1,4-bis(4,4,5,5-tetramethyl-1,3,2-dioxaborolan-2-yl)benzene] |  | solubility in 1,3-bis(trifluoromethyl)benzene: 0.17 g/10 ml·solvent
CN(C(=O)C(F)(OC(F)(F)C(F)(F)C(F)(F)F)C(F)(F)F)c1cc(B2OC(C)(C)C(C)(C)O2)cc(B2OC(C)(C)C(C)(C)O2)c1 (stereo not shown) [compound [A]] | 3.0 g/10 ml·solvent | 
CN(C(=O)C(F)(OC(F)(F)C(F)(OC(F)(F)C(F)(OC(F)(F)C(F)(F)C(F)(F)F)C(F)(F)F)C(F)(F)F)C(F)(F)F)c1cc(B2OC(C)(C)C(C)(C)O2)cc(B2OC(C)(C)C(C)(C)O2)c1 (stereo not shown) [compound [B]] |  | solubility in a fluorine-containing organic solvent (5 g added to 10 ml of 1,3-bis(trifluoromethyl)benzene): a homogeneous solution was formed
